Values belong to the compound of their own block, whether it stands above or below them.
What was measured:
[1] = tested on: AU-RNA (poly A—poly U) (RNA, polymer) A/U; assay: circular dichroism titration; settings: Na+ (sodium cacodylate, I = 0.05 M); pH 7.0, room temperature; RNA 20 µM; CD spectrum somewhat changed
[2] = tested on: AU-RNA (poly A—poly U) (RNA, polymer) A/U; assay: UV thermal denaturation, 260 nm; settings: Na+ (sodium cacodylate, I = 0.05 M), error ± 0.5, per base
[3] = tested on: AU-RNA (poly A—poly U) (RNA, polymer) A/U; assay: fluorimetric titration, Scatchard; settings: Na+ (sodium cacodylate, I = 0.05 M); pH 7.0, 25 °C, 0.04% DMSO; n fixed 0.2; polynucleotide as phosphates; per base
[4] = tested on: AT-DNA (poly dAdT—poly dAdT) (DNA, polymer) AT; assay: fluorimetric titration, Scatchard; settings: Na+ (sodium cacodylate, I = 0.05 M); pH 7.0, 25 °C, 0.04% DMSO; n fixed 0.2; polynucleotide as phosphates; per base

binding [1]: weak
Structure (SMILES): CC12SC(C(=O)NCCN)=CC1=C1CCCC1=C1C=C(C(=O)NCCN)SC12C (stereo not drawn)

∆Tm ([2]; pH 7.0, 4% DMSO, r = 0.3, no stabilisation): 0.3 °C
Structure (SMILES): CC12SC(C(=O)NCCNC(=O)c3ccc4ccc5cccc6ccc3c4c56)=CC1=C1CCCC1=C1C=C(C(=O)NCCNC(=O)c3ccc4ccc5cccc6ccc3c4c56)SC12C (stereo not drawn)

∆Tm ([2]; pH 7.0, r = 0.3): −0.7 °C
Structure (SMILES): Cc1sc(C(=O)NCCN)cc1C1=C(c2cc(C(=O)NCCN)sc2C)CCC1

logKs [3]: 6.1 log M^-1 | logKs [4]: 6.3 log M^-1 | ∆Tm ([2]; pH 7.0, 0.5% DMSO, r = 0.3, RNA 20 µM, two transitions (first/second)): 0/23.4 °C
Structure (SMILES): Cc1sc(C(=O)NCCNC(=O)c2ccc3ccc4cccc5ccc2c3c45)cc1C1=C(c2cc(C(=O)NCCNC(=O)c3ccc4ccc5cccc6ccc3c4c56)sc2C)CCC1

Source: PMC8125568 (2021)
